Test results taken from publication PMC12203697, “Bioactive constituents from the edible seaweed Halymenia hawaiiana (Rhodophyta)” (Pharmaceutical Biology, 2025).
Values after ≈ are worked out from the molar mass of the structure shown. Like-named read-outs stand apart in the source and are kept apart here.

Columns and labels:
[1] = Ferric-reducing antioxidant power (FRAP) assay
Procedure: The FRAP assay was used to evaluate antioxidant activity based on the ability of the sample to reduce Fe^3+-TPTZ (2,4,6-tris(2-pyridyl)-S-triazine) to Fe^2+-TPTZ (Benzie and Strain [1996]). This reduction results in a color change from colorless to blue. The absorbance was measured at 593 nm using a Microplate Reader (BioTek ELx800 Instruments Inc. Winooski, Vermont, USA) with the Gen 5 software for FRAP value calculations. A ferrous sulfate heptahydrate (FeSO4 · 7H2O) (Cat. No. 215422, Sigma-Aldrich, USA) standard curve, ranging from 1000 µM to 50 µM, was prepared for the assay. The FRAP reagent consists of 300 mM sodium acetate buffer (pH 3.6) (Cat. No. 90358, Sigma-Aldrich, USA), 10 mM TPTZ solution (Cat. No. T1253, Sigma-Aldrich, USA), and 20 mM ferric (III) chloride hexahydrate (FeCl3 · 6H2O) (Cat. No. 236489, Sigma-Aldrich, USA) in a 10:1:1 ratio, respectively, and heated to 37 °C for ten minutes before use. A blank was measured at 593 nm with 150 µL FRAP reagent added to each well of a 96-well microtiter plate. Samples (20 µL of each sample) (1, 0.5, 0.25 mg/mL) and ascorbic acid (Sigma-Aldrich, Cat. No. A4403) positive control (1 mg/mL) were added in triplicates. Reducing capacity was expressed by FRAP values in an µM FeSO4/µg sample unit.

[2] = tested on: A549 human lung carcinoma epithelial cells; test: SRB cytotoxicity assay, A549 cells; settings: SRB assay, 72 h, highest concentration tested 100 µg/ml
Procedure: After incubation, cells were fixed with trichloroacetic acid (Cat. No. T4885, Sigma-Aldrich, USA), stained with SRB (Cat. No. S9012, Sigma-Aldrich, USA), and the absorbance was measured at 515 nm. Percent cell death was calculated using the following equation: % Cell death=(ODc−OD0)‐(ODs−OD0)/(ODc−OD0)×100
OD0 = Optical density of cells before treatment (baseline reading).
ODC = Optical density of untreated control cells after 72 h.
ODS = Optical density of cells treated with the test sample after 72 h.
Non-linear regression analysis was performed using GraphPad Prism to calculate the IC50 value. This value reflects the concentration needed to inhibit cell growth by 50%.
All data are presented as mean ± standard error of the mean (SEM) and were collected from three separate experiments. Statistical analyses were conducted using Student’s t-test or ANOVA, followed by Tukey’s multiple comparisons test. Significance is indicated by *p < 0.05, **p < 0.01, and ***p < 0.001.

[3] = tested on: LPS-induced nitric oxide (NO) production in RAW 264.7 cells; test: Inhibition of NO generation in LPS-induced RAW 264.7 cells (Griess); assay type: cell-based, murine; settings: RAW 264.7 cells, LPS-induced, highest concentration 50 μg/mL
Procedure: The nitrite concentration in the culture medium was measured to indicate nitric oxide (NO) production as previously described (Min et al. [2009]). The murine macrophage RAW 264.7 cell line was obtained from ATCC, Manassas, VA, USA, and maintained in Dulbecco’s modified Eagle’s medium supplemented with 10% heat-inactivated FBS (Cat. No. A5670801, Gibco BRL Co, Grand Island, NY, USA), penicillin G (100 units/mL) (Cat. No. P7794, Sigma-Aldrich, USA), streptomycin (100 µg/mL) (Cat. No. S9137, Sigma-Aldrich, USA), and L-glutamine (2 mM) (Cat. No. 25030081, Gibco BRL Co, Grand Island, NY, USA). In brief, RAW 264.7 cells were seeded at a density of 4 × 10^4 cells/well in phenol red-free media (Cat. No. 11835030, Gibco, USA) in a 96-well plate, and incubated in a humidified incubator with 5% CO2 at 37 °C for 24 hr. […] The concentration of nitric oxide production was assessed using the Griess reagent, which consists of a 1:1 (v/v) mixture of 1% sulfanilamide (Cat No. A13001, Alfa Aesar, Massachusetts, USA) in H3PO4 and N-(1-naphthyl)ethylenediamine dihydrochloride (Cat. No. 102397, MP Biomedicals, USA). Absorbance was recorded with a microplate reader (SynergyMx, BioTeK, Winooski, VT, USA) at 540 nm. A standard curve was created using sodium nitrite (1–100 μM) (Cat. No. 44227, Alfa Aesar, Massachusetts, USA). A sulforhodamine B (SRB) assay was employed to assess the cellular viability of the samples with RAW 264.7 cells under a similar experimental setup. The final % inhibition of NO production was adjusted based on cell viability.

S. aureus CART817 = test: Antibacterial MIC, broth microdilution with resazurin; assay type: cell-based; settings: Staphylococcus aureus; S. aureus CART817, Gram-positive; read-out: MIC
Procedure: (§1) The minimum inhibitory concentrations (MICs) were determined using a two-fold serial dilution method with MHB following the recommendations of the Clinical and Laboratory Standards Institute (CLSI [2012]; Elshikh et al. [2016]). In brief, serial two-fold dilutions of the samples in DMSO were mixed with MHB in a 96-well microplate. Then, 50 µL of bacteria suspension was added to each well, resulting in a final concentration of 1 × 10^4 colony-forming units/well. The plates were incubated at 35–37 °C for 18–24 hr. After incubation, 10 µL of 0.18% resazurin (Cat. No. R7017, Sigma-Aldrich, USA) was added to each well (Elshikh et al. [2016]). The MIC was assessed within 2–3 hr after the addition of resazurin. All antimicrobial assays were performed in triplicate, using vancomycin (Cat. No. SBR00001, Sigma-Aldrich, USA) and gentamicin (Cat. No. G1397, Sigma-Aldrich, USA) as standard controls.

MRSA HBP10 = test: as above; assay type: cell-based, Staphylococcus aureus; settings: MRSA HBP10, Gram-positive
From the text: (§2) Methicillin-resistant Staphylococcus aureus (MRSA), methicillin-susceptible S. aureus (MSSA), and Gram-negative clinical isolates of bacteria [Escherichia coli (9637) and Serratia marcescens ATCC 13880] were used for this study. […] MSSA HBP10, MSSA LUU7, MSSA R113, S. aureus ONE9, and MSSA POB2 were isolated in Hawaiʻi (Gerken et al. [2021]). Mueller Hinton Broth (MHB, GTIN:00382902979630, Becton, Dickinson and Company, Franklin Lakes, NJ, USA) and Mueller Hinton Agar (MHA, GTIN:00382902252504, Becton, Dickinson and Company, Franklin Lakes, NJ, USA,) were used for bacterial inoculation. MRSA was a pathogen strain causing hospital-acquired infections in 1982. This strain easily acquires resistance to antibiotics, such as vancomycin. MSSA strains isolated from the Island of Hawaiʻi included: Honolʻii Beach Park (HBP10) carry the genes erm(C), aph(3′)-III, and mecA, which provide resistance to macrolide, aminoglycoside, and beta-lactam antibiotics, respectively; Wailuku River (LUU7) which contains the blaZ gene (beta-lactam resistance) (Gerken et al. [2021]). Richardson’s Beach Park (R113) and Onekahakaha (ONE9) which is known for its virulence factors (hlgA, hlgB, hlgC, lukD, and lukE).
as §1

MRSA POB2 = test: as above; assay type: cell-based, Staphylococcus aureus; settings: MRSA POB2, Gram-positive
From the text: as §2, §1

S. aureus NEWMAN = test: as above; assay type: cell-based, Staphylococcus aureus; settings: Staphylococcus aureus; S. aureus NEWMAN, Gram-positive; read-out: MIC
From the text: as §2, §1

E. coli = test: as above; assay type: cell-based; settings: Escherichia coli, Gram-negative
From the text: as §2, §1

MRSA USA300 = test: as above; assay type: cell-based; settings: Staphylococcus aureus; MRSA USA300, Gram-positive; read-out: MIC
From the text: as §2, §1

MSSA LUU7 = test: as above; assay type: cell-based; settings: Staphylococcus aureus; MSSA LUU7, Gram-positive; read-out: MIC
From the text: as §2, §1

MSSA R113 = test: as above; assay type: cell-based; settings: Staphylococcus aureus; MSSA R113, Gram-positive; read-out: MIC
From the text: as §2, §1

S. aureus 8325-4 = test: as above; assay type: cell-based; settings: Staphylococcus aureus, 83254; S. aureus 8325-4, Gram-positive; read-out: MIC
From the text: as §2, §1

S. aureus ONE9 = test: as above; assay type: cell-based; settings: Staphylococcus aureus; S. aureus ONE9, Gram-positive; read-out: MIC
From the text: as §2, §1

S. marcescent = test: as above; assay type: cell-based, Serratia marcescens; settings: Gram-negative
From the text: as §2, §1

[4] = Staphylococcus aureus, read-out: MIC
[5] = Serratia marcescens, read-out: MIC

Row | Compound | MIC (MRSA HBP10) | MIC (MRSA POB2) | MIC (S. marcescent) | FRAP ([1]; FeSO4 standard curve) [µM] | FRAP ([1]; µM FeSO4/µg sample) [µM/µg] | FRAP ([1]; µM FeSO4/µg sample, listed as ascorbic acid) [µM/µg] | cytotoxic response against A549 cells (in words) [2] | NO inhibitory activity (in words) [3] | MIC (S. aureus CART817) [µg/mL] | MIC (MRSA HBP10; [4]) [µg/mL] | MIC (MRSA POB2; [4]) [µg/mL] | MIC (S. aureus NEWMAN) [µg/mL] | MIC (E. coli) [µg/mL] | MIC (MRSA USA300) [µg/mL] | MIC (MSSA LUU7) [µg/mL] | MIC (MSSA R113) [µg/mL] | MIC (S. aureus 8325-4) [µg/mL] | MIC (S. aureus ONE9) [µg/mL] | MIC (S. marcescent; [5]) [µg/mL]
1 | O=C1O[C@H]([C@@H](O)CO)C(O)=C1O [Ascorbic acid, ascorbic acid, reference compound] | – | – | – | 2847.40 | 35.59 ± 0.09 | 35.59 | – | – | – | – | – | – | – | – | – | – | – | – | –
2 | Nc1ncnc2c1ncn2[C@H]1C[C@H](O)[C@@H](CO)O1 [Compound 2, deoxyadenosine] | – | – | – | – | – | – | no cytotoxic response | no significant NO inhibitory activity | 128 (≈ 509 µM) | 128 (≈ 509 µM) | 128 (≈ 509 µM) | 128 (≈ 509 µM) | 128 (≈ 509 µM) | 128 (≈ 509 µM) | 128 (≈ 509 µM) | 128 (≈ 509 µM) | 128 (≈ 509 µM) | 128 (≈ 509 µM) | 64 (≈ 255 µM)
3 | Nc1cc[nH]c(=O)n1 [Compound 3, cytosine] | – | – | – | – | – | – | no cytotoxic response | no significant NO inhibitory activity | 128 (≈ 1150 µM) | 128 (≈ 1150 µM) | 128 (≈ 1150 µM) | 128 (≈ 1150 µM) | 128 (≈ 1150 µM) | 128 (≈ 1150 µM) | 128 (≈ 1150 µM) | 128 (≈ 1150 µM) | 128 (≈ 1150 µM) | 128 (≈ 1150 µM) | 128 (≈ 1150 µM)
4 | CCCCCCCCCCCCCCCC(=O)O [Compound 5, palmitic acid] | Inactive | Inactive | Inactive | 88.06 | 1.10 ± 0.02 | – | inactive | – | – | – | – | – | – | – | – | – | – | – | –

Second part, led by results:

Row | MIC (MRSA HBP10) | MIC (MRSA POB2) | MIC (S. marcescent) | Compound | FRAP ([1]; FeSO4 standard curve) [µM] | FRAP ([1]; µM FeSO4/µg sample) [µM/µg] | FRAP ([1]; µM FeSO4/µg sample, listed as ascorbic acid) [µM/µg] | cytotoxic response against A549 cells (in words) [2] | NO inhibitory activity (in words) [3] | MIC (S. aureus CART817) [µg/mL] | MIC (MRSA HBP10; [4]) [µg/mL] | MIC (MRSA POB2; [4]) [µg/mL] | MIC (S. aureus NEWMAN) [µg/mL] | MIC (E. coli) [µg/mL] | MIC (MRSA USA300) [µg/mL] | MIC (MSSA LUU7) [µg/mL] | MIC (MSSA R113) [µg/mL] | MIC (S. aureus 8325-4) [µg/mL] | MIC (S. aureus ONE9) [µg/mL] | MIC (S. marcescent; [5]) [µg/mL]
5 | Inactive | Inactive | Inactive | CCCCCCCCCCCCCCCC(C)=O [Compound 4, 2-heptadecanone] | – | – | – | – | – | – | – | – | – | – | – | – | – | – | – | –
6 | Inactive | Inactive | Inactive | CCCCCCCCCCCCCCCC(=O)OC [Compound 6, methyl palmitate] | 499.40 | 6.24 ± 0.07 | – | – | – | – | – | – | – | – | – | – | – | – | – | –
